Test results: article PMC3690700 (Journal of nuclear medicine : official publication, Society …, 2008)
“And” between values parts separate entries of the source, which are not always exact repeats. Equal values may be shown once. Marks after values point to notes of the source that are not given here.

Key:
[1] = Single i.v. dose of tariquidar in humans; type: in vivo; conditions: single i.v. dose of 2 mg/kg, from Cmax
[2] = system: P-gp at the BBB
[3] = system: P-gp; conditions: read-out: half-maximum inhibition constant (IC50); substrate transport by P-gp in vitro; cited from earlier work
[4] = humans, ref personal communication Dr. U. Elben, Aväant Pharmaceuticals; cited from earlier work
[5] = humans, single i.v. dose of 2 mg/kg, cited from earlier work
[6] = system: P-gp; conditions: mice, P-gp substrate loperamide, conventional biodistribution; cited from earlier work
[7] = system: P-gp at the BBB; assay: in vivo; conditions: Wistar Unilever, rat
[8] = Metabolism of; conditions: tariquidar 15 mg/kg i.v.
[9] = 2T4K model, tariquidar 15 mg/kg i.v. 2 h before PET scan (n=5)
[10] = 2T4K model, with vs without tariquidar 15 mg/kg i.v.

SMILES: COc1cc2c(cc1OC)CN(CCc1ccc(NC(=O)c3cc(OC)c(OC)cc3NC(=O)c3cnc4ccccc4c3)cc1)CC2 [tariquidar]
- unbound concentration [1]: about 0.012 μM
- Increase of K1 after tariquidar, 1T2K model ([2]; 1T2K model, tariquidar treatment): +632%
- DV of (R)-11C-verapamil with tariquidar [2, 9]: 3.68±0.81 mL·mL^−1 and 3.68±0.81 (3) mL·mL^−1
- K1 of (R)-11C-verapamil with tariquidar [2, 9]: 0.58±0.20 (9) mL·mL^−1·min^−1
- k2 of (R)-11C-verapamil with tariquidar [2, 9]: 0.27±0.07 (43) min^−1
- k3 of (R)-11C-verapamil with tariquidar [2, 9]: 0.37±0.17 (66) min^−1
- k4 of (R)-11C-verapamil with tariquidar [2, 9]: 0.66±0.49 (55) min^−1
- Relative change of k2 [2, 10]: −23%
- Relative change of k3 [2, 10]: +27%
- Relative change of k4 [2, 10]: −9%
- DV (Logan) of (R)-11C-verapamil with tariquidar ([2]; Logan analysis, tariquidar 15 mg/kg i.v. 2 h before PET scan (n=5)): 3.53±0.79 (1) mL·mL^−1
- Relative change of DV (Logan) ([2]; Logan analysis, with vs without tariquidar 15 mg/kg i.v.): +1,007^† %
- Emax ([2]; maximum effect (DV) of dose-response fit, estimate±asymptotic standard error): 4.5±3.8
- Time of peak uptake of activity in brain after tariquidar injection ([2]; scan 2, 0-90 min after tariquidar 15 mg/kg i.v.): 32 ± 5 min
- Brain uptake of activity after tariquidar vs baseline PET scans ([2]; tariquidar 15 mg/kg): about 12 fold
- Increase of DV of (R)-11C-verapamil after tariquidar vs baseline ([2]; tariquidar 15 mg/kg i.v., rat brain): 12 fold
- IC50 [3]: 40 nM and ~40 nM
- bound to plasma proteins [4]: 99.5%
- Tolerability [5]: well tolerated
- Cmax ([5]; read-out: maximum plasma concentrations (Cmax)): ~2300 nM
- ED50 [6]: 5.6 mg/kg
- ED50 at 2 h [7]: 8.4 ± 9.5 mg/kg
- Effect of tariquidar administration on metabolism of (R)-11C-verapamil [8]: essentially left unaffected
